Results reported in patent publication US11839661B2, “Rapid formation of supramolecular hydrogels by short peptide and bioactive small molecules” (BRANDEIS UNIVERSITY, priority 2017, dated 2023).
Square brackets hold non-standard residues; d marks the D form. Ends that are not written are not given here. Peptide text beside a SMILES is read from it. * marks the point of attachment. Acetyl(thymin-1-yl) = Cc1cn(CC(=O)*)c(=O)[nH]c1=O; Acetyl(2-naphthyl) = O=C(Cc1ccc2ccccc2c1)*

Experiments:
MES-SA/dx5 cells [1] = assay: MTT assay; assay type: cell-based; conditions: 48 hours
Experimental: Cell culture and MTT assay: Cell culture was carried out with MES-SA/dx5 cells purchased from Sigma-Aldrich Corporation. These cells were cultured in Macyo's 5A medium supplemented with 10% v/v fetal bovine serum, 100 U/mL penicillin and 100 μg/mL streptomycin. The condition for cell culture was 37° C. in a humidified atmosphere of 5% CO2. The MTT assay was carried out using MES-SA/dx5 cells seeded in a 96-well plate with a density of 1*10^4 cells per-well (total medium volume of 100 μL). 24 hours post seeding, after the removal of the medium, solutions with serial of concentrations (5 concentrations) of different nucleopeptides were added to each well. Cells without the treatment of the precursors were used as the control. At designated time (24/48/72 hours), 10 μL MTT solution (5 mg/mL) was added to each well and incubated at 37° C. for another 4 h, and then 100 μL of SDS-HCl solution was added to stop the reduction reaction and dissolve the purple formazan. The absorbance of each well at 595 nm was measured by a multimode microplate reader. The cytotoxicity assay was performed three times and the average value of the three measurements was taken. All the statistical analysis used mean±SEM. The range of SEM is from 0.04 to 2.21.

MES-SA/dx5 cells [2] = assay: CLSM of inhibition of Dox efflux pump; assay type: cell-based; conditions: MES-SA/dx5 cells without NP1 treatment, five hours after changing to medium without Dox
Experimental: Confocal Laser Scanning Microscopy (CLSM) Images of the Inhibition of Efflux Pump: To determine the potential drug efflux inhibitory effect by nucleopeptides, the drug efflux of free DOX was evaluated without or with incubation with nucleopeptide in efflux pumps overexpressing MES-SA/dx5 cells. After seeding 1.5×10^5 cells into 3.5 cm confocal dish and incubating at 37° C. for 24 h, the cells were incubated either with 10 μM free Dox or Dox with different concentration of nucleopeptide for 4 h. Then the medium was removed and the cells were washed three times with culture medium, and subsequently incubated with fresh complete medium for different time intervals (0, 2 or 5 h). At the end of incubation time, the cells were washed twice by live cell imaging buffer and stained nucleus by Hoechst 33342 for 10 minutes. After washed twice by live cell imaging, the cells were imaged immediately by Zeiss 880 microscope at the lens of 60×.

[3] = Rheology (storage and loss moduli); assay type: physicochemical
Experimental: Rheology Experiments: The rheological tests were performed on TA ARES-G2 rheometer, parallel-plate geometry with an upper plate diameter of 25 mm and a gap of 0.4 mm. During the measurement, the stage temperature was maintained at 25° C. by Peltier heating/cooling system. The hydrogel was loaded into stage by spatula. For the rheology testing in Examples 1-7, a time sweep was performed at the frequency of 6.28 rad/s and the strain for 1.0%, and a frequency sweep was performed at the range of 0.1 to 200 rad/s and strain is 1.0%. For the rheology testing in Examples 8-12, a strain sweep (0.1% to 100%) was performed at the frequency of 6.28 rad/s, and a frequency sweep was performed at the range of 0.1 to 200 rad/s and strain is 1.0%.

[4] = Hydrogelation / gelation time by vial inverse method; assay type: physicochemical
Experimental: Hydrogel Preparation: Compound 1 (5.0 mg) was dissolved in 1 mL of aqueous buffer (sodium hydroxide was used to adjust the final pH to 7.4), and the hydrogels were formed after the addition of different equivalents of small molecules (initial concentration is 100 mM), the final concentration of 1 is 0.4 wt % in all hydrogels. The gelation time of 1 with different bioactive small molecules was determined by vial inverse method.

[5] = Doxorubicin release from hydrogel; assay type: physicochemical; conditions: hydrogel of 1 (0.4 wt %) formed with 1 equivalent pyridoxal, Dox 200 μg/mL, 37° C.
Experimental: To load the drug, a solution of Dox (1 mg/mL) was added during the gelling process. After the hydrogel formed by addition of pyridoxal or ATP (final concentration of 1 is 0.4 wt % and doxorubicin was 200 μg/mL). 0.25 mL of PBS (0.1 M phosphate-buffered saline (PBS, pH 7.4) or 0.1 M acetate buffer solution (pH 5.0)) was added onto the surface of the hydrogels, 0.2 mL of solution was taken out at the desired time point and 0.2 mL of PBS was added back. For the following time points, 0.2 mL of PBS was taken out and 0.2 mL of PBS was added back at each point. Using this process, the release of Dox was monitored by measuring the absorbance of Dox at wavelength of 480 nm, and its release profile calculated. The experiment was performed at 37° C. in triplicate. The results are shown in FIGS. 9A-B. As expected, the hydrogel releases the Dox according to the type of small bioactive molecules and pH.

[6] = tested on: HS-5 (Human Bone Marrow Stromal) cell lines; assay: Biocompatibility with HS-5 cell lines; assay type: cell-based; conditions: HS-5 cells, over 3 days, concentration range 20-500 μM
Excerpt: The biocompatibility of peptide 1 with HS-5 (Human Bone Marrow Stromal) cell lines was investigated over 3 days. […] It is expected, therefore, that peptide 1 is also compatible with other types of physiologically normal cells.

MBP-ASC^PYD = MBP-ASC^PYD (Homo sapiens, UniProt Q9ULZ3); assay: TEM of MBP-ASC^PYD oligomerization on co-incubation with P5P; assay type: biochemical; conditions: P5P 100 μM co-incubated with MBP-ASC^PYD (1 mg/mL, ~18 μM)
[7] = Sequestration of ATP by nucleopeptide (phase transition); assay type: binding
Experimental: (§1) Sample Preparation and Process for Sequestering ATP by Nucleopeptide: Typically, nucleopeptide […] was dissolved in 1 mL of PBS buffer. A minimal amount of sodium hydroxide was used to adjust the final pH to 7.4 to form 5.0 wt % solution of the nucleopeptide. ATP or ADP was dissolved in PBS buffer at the concentration of 100 mM with the final pH of 7.4. To test sequestration ability of nucleopeptide, we mixed the solution of 5.0 wt % of nucleopeptide with ATP (ADP) in different molar ratio and stirred the mixture with pipettor gently. The mixture was kept at room temperature and used for different characterizations. The sequestration of ATP (or ADP) results in phase transition, from the solution to precipitates or hydrogel, which is observable by naked eyes. Such phase transitions were further characterized by TEM, CD, SLS and rheology according to the same procedure for sample preparation.

[8] = Interaction of nucleopeptide with ADP (phase transition); assay type: binding; conditions: PBS buffer pH 7.4
Experimental: as §1

[9] = 1 at 0.4 wt %, 1 equivalent folinic acid
[10] = 1 at 0.4 wt %, 1 equivalent pyridoxal
[11] = 1 at 0.4 wt %, 4 equivalents folinic acid
[12] = 1 at 0.4 wt %, 4 equivalents pyridoxal

Sequence of MBP-ASC^PYD (Q9ULZ3 1-91 limits assumed): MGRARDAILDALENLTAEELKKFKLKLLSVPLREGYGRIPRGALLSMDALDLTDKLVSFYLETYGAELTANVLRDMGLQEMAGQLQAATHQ

**Q.** Which results are given for COc1cccc2c1C(=O)c1c(O)c3c(c(O)c1C2=O)C[C@@](O)(C(=O)CO)C[C@@H]3O[C@H]1C[C@H](N)[C@H](O)[C@H](C)O1 [Dox, doxorubicin, reference compound]?
**A.** cell death (MES-SA/dx5 cells [1]; Dox alone (5 mm as printed)): 46%; cellular retention of Dox (efflux) (MES-SA/dx5 cells [2]): little Dox

**Q.** For Cc1cn(CC(=O)N[C@H](Cc2ccccc2)C(=O)N[C@H](Cc2ccccc2)C(=O)N[C@H](CCCCN)C(=O)N[C@H](CCCCN)C(=O)N[C@H](Cc2ccccc2)C(=O)N[C@H](CCCCN)C(=O)N[C@H](CC(C)C)C(=O)N[C@H](CCCCN)C(=O)N[C@H](CC(C)C)C(=O)O)c(=O)[nH]c1=O [NP1, thyminylacetyl-ffkkfklkl] ({Acetyl(thymin-1-yl)}-[dF][dF][dK][dK][dF][dK][dL][dK][dL]-OH), which cytotoxicity (MES-SA/dx5 cells [1]; NP1 by itself) is on record?
**A.** little cytotoxicity

**Q.** Which results are given for CC(C)C[C@H](NC(=O)[C@H](CCCCN)NC(=O)[C@H](CC(C)C)NC(=O)[C@H](CCCCN)NC(=O)[C@H](Cc1ccccc1)NC(=O)[C@H](CCCCN)NC(=O)[C@H](CCCCN)NC(=O)[C@H](Cc1ccccc1)NC(=O)[C@H](Cc1ccccc1)NC(=O)Cc1ccc2ccccc2c1)C(=O)O [Peptide 1] ({Acetyl(2-naphthyl)}-FFKKFKLKL-OH; C-terminus assumed)?
**A.** storage modulus [3, 9]: 64 Pa; cross point of G′ and G″ [3, 10]: 77 s; storage modulus G′ [3, 10]: 55 Pa; storage modulus [3, 11]: 78 Pa; storage modulus G′ [3, 12]: 980 Pa; storage modulus G′ ([3]; 1 at 0.4 wt %, one equivalent of P5P): 40 Pa; mechanical properties ([3]; 1 in the presence of ATP or AMP): change little; storage modulus G′ ([3]; 1 itself, 0.4 wt %, after 1 h incubation): around 6 Pa; G′ relative to hydrogel formed with 1 equivalent pyridoxal ([3]; 4 equivalents pyridoxal): 18 times; G′ relative to G′ of 1 itself ([3]; one equivalent of P5P): 8 times; tendency for hydrogelation (state in aqueous solution) ([4]; 1 alone, 0.4 wt %, pH 7.4): transparent viscous solution; gelation time ([4]; 1 at 0.4 wt %, 1 equivalent AMP): 11 s; gelation time [4, 9]: about 8 seconds; gelation time (sol-gel phase transition) [4, 10]: 190 s; gelation time ([4]; 1 at 0.4 wt %, 1 or 4 equivalents ATP): about 7 seconds; gelation time ([4]; 1 at 0.4 wt %, 4 equivalents AMP): 5 s; gelation time [4, 11]: ~7 s; gelation time [4, 12]: ≤ 19 s; gelation time ([4]; 1 at 0.4 wt %, four molar equivalents of P5P): 4 s; gelation time ([4]; 1 at 0.4 wt %, pH 7.4, equal molar P5P): ≤ 10 s; gelation time ([4]; 1 at 0.4 wt %, two to four molar equivalents of P5P): ≤ 10 s; release of doxorubicin from hydrogel ([5]; pH 5.0, 12 h): about 85%; release of doxorubicin from hydrogel ([5]; pH 7.4, 12 h): 50%; biocompatibility [6]: cell-compatible

**Q.** Which “oligomerization of MBP-ASC^PYD” value (MBP-ASC^PYD) does the source give for Cc1ncc(COP(=O)(O)O)c(C=O)c1O [Peptide P5P, pyridoxal-5-phosphate] here?
**A.** modulates the oligomerization

**Q.** For thyminylacetyl-FF [NP11], which “ability to sequester ATP” value [7] is on record?
**A.** unable to sequester ATP

**Q.** Which “ability to sequester ATP” value [7] does the source give for thyminylacetyl-FFK [NP10] here?
**A.** unable to sequester ATP

**Q.** With thyminylacetyl-FFKK [NP9] as the compound, how does the “ability to sequester ATP” value [7] read?
**A.** unable to sequester ATP

**Q.** For “thyminylacetyl-FFKKF ({Acetyl(thymin-1-yl)}-FFKKF) [NP6]”, which “ability to sequester ATP” value [7] is on record?
**A.** able to sequester ATP

**Q.** With “thyminylacetyl-FFKKFK ({Acetyl(thymin-1-yl)}-FFKKFK) [NP8]” as the compound, how does the “ability to sequester ATP” value [7] read?
**A.** unable to sequester ATP

**Q.** Which “ability to sequester ATP” value [7] does the source give for “thyminylacetyl-FFKKFKL ({Acetyl(thymin-1-yl)}-FFKKFKL) [NP4]” here?
**A.** able to sequester ATP

**Q.** With “thyminylacetyl-FFKKFKLK ({Acetyl(thymin-1-yl)}-FFKKFKLK) [NP7]” as the compound, how does the “ability to sequester ATP” value [7] read?
**A.** unable to sequester ATP

**Q.** With “thyminylacetyl-FFKKFKLKL ({Acetyl(thymin-1-yl)}-FFKKFKLKL) [NP2]” as the compound, how does the “phase transition in the presence of ADP” value [8] read?
**A.** remains as a transparent solution

**Q.** What about the “ability to sequester ATP” value [7] of the same compound?
**A.** able to sequester ATP

**Q.** And the “phase transition after addition of ATP” value ([7]; PBS buffer pH 7.4)?
**A.** precipitates

**Q.** For “thyminylacetyl-KKFKLKL ({Acetyl(thymin-1-yl)}-KKFKLKL) [NP12]”, which “ability to sequester ATP” value [7] is on record?
**A.** unable to sequester ATP

**Q.** With thyminylacetyl-ffkkf [NP5] as the compound, how does the “ability to sequester ATP” value [7] read?
**A.** able to sequester ATP

**Q.** With thyminylacetyl-ffkkfkl [NP3] as the compound, how does the “ability to sequester ATP” value [7] read?
**A.** able to sequester ATP
